Earlier results on 1 compound are cited in patent US20260325503A1, “LONG-ACTING FORMULATIONS” (JANSSEN PHARMACEUTICA NV, priority 2022, published 2026).

Series [1] deals with mycobacterial ATP synthase. The conditions noted are these: mycobacterial ATP synthase versus eukaryotic mitochondrial ATP synthase.
The subject of series [2] is M. tuberculosis.
The test system of series [3] is Mycobacterium leprae.

In the case of `COc1nc2ccc(Br)cc2cc1[C@@H](c1ccccc1)[C@@](O)(CCN(C)C)c1cccc2ccccc12` [bedaquiline], in series [1], the selectivity index entry is on record as “more than 20000”. For the same compound, the “minimal dose killing 99% of bacilli” value was 30 mg/kg/wk in series [2] and less than 5.0 mg/kg/wk in series [3] (M. lepra). Also, the “Bactericidal activity (in words)” value in series [3] (mycobacterium leprae, mice) was “bactericidal”.
